The nature of the series: molar enthalpy of vaporization or sublimation. Particulars: 298.15 K; Crystal; Static calorimetry.

Numbers after ± are expanded uncertainties.

Consider `OCCc1c[nH]c2ccccc12` [2-(1H-indol-3-yl)ethanol], for which the molar enthalpy worked out at 120 ± 2.5 kJ/mol.

The values above are taken from the NIST ThermoML archive (doi:10.1016/j.tca.2019.01.021).
